In data set [1] the test system is mitochondrial DNA (mtDNA) prepared from MM.1S cells. In words: Direct DNA damage, PCR amplification with mtDNA primers. In kind it is biochemical, human. As to conditions: 0.25 μM compound, 30 minutes at 37° C. How it is done: (§1) Method: DNA was prepared from MM.1S cells by QIAGEN genomic tip 20/G according to protocol described in Furda et al., Methods Mol Biol, 2012. 1 μg of DNA was treated with 0.25 μM compound for 30 minutes at 37° C. DMSO was used as control treatment. 20 ng of the treated DNA was PCR amplified using Phusion Hot Start II High Fidelity PCR Master Mix (Thermo Scientific) and primers directed to either HPRT or primers directed to mitochondrial DNA (mtDNA) was used, generating 10.4 or 8.9 kb fragments, respectively. The PCR reactions were separated on a 1% agarose gel and visualized by ChemiDoc™ MP Imaging System (BioRad). Example compounds 1, 2 and 38 were investigated, as were compounds 18 and 20, which are metabolites of compound 1. They were compared with bendamustine, melphalan and DMSO control. The results for compounds 1, 2, 18 and 20 with the HPRT primers are shown in FIG. 4(A); the results with the mtDNA primers are shown in FIG. 4(B).

Data set [2] relates to nuclear DNA (HPRT) prepared from MM.1S cells. In words: Direct DNA damage, PCR amplification with HPRT primers. Type of data set: biochemical, human. To be noted: 0.25 μM compound, 30 minutes at 37° C. On the procedure:
as §1

In data set [3] the test system is hPBMC (Human Peripheral blood mononuclear cells). Nature of the data set: In vitro cytotoxicity (CellTiter-Glo, 72 h) in hPBMC. As to conditions: stimulated with PHA-M and IL-2. Type of data set: cell-based. How it is done: All cells were cultivated in RPMI medium 1640 (IX). All media was supplemented with […] penicillin/streptomycin, 10% heat inactivated FBS, 0.1 mM Sodium Pyruvate, 1×MEM NEAA (ThermoFisher) and 1 mM HEPES. The DERL-2 cells had higher FBS (20%) and 40 ng/mL IL-2 was added. hPBMCs were thawed and allowed to acclimatise overnight and then stimulated with 10 µg/mL PHA-M and 40 ng/mL IL-2 for 4 hours before being exposed to test compounds. All cells, except for hPBMCs, were grown to reach log phase before being exposed to the test compounds.
Test compounds were dissolved in 100% DMSO and added to a 384 assay plate. Additional DMSO was added to maintain the same final DMSO concentration (0.2%) in all wells. 25 μL cell suspension with a concentration of 100000 cells/mL was added to each well. The cells were cultured in a CO2 incubator at 37° C. for 72 h. Plates were equilibrated to room temperature for 30 minutes before adding 20 μL CellTiter-Glo® 2.0 (Promega) reagent to all wells. The plate was then allowed to stabilize for 20 minutes before recording the luminescence (Em filter 700 nm) in an Envision plate reader.

The subject of data set [4] is MM.1S cells. In words: Cellular retention/efflux: intracellular and extracellular concentrations by LC-MS/MS. In kind it is in vitro ADME, human. As to conditions: MM.1S cells. How it is done: Methods: MM.1S cells at 2×10^6 cells/mL were seeded at 250 μL per well in a 96-well plate. Cells were incubated in the presence of a test compound for 5, 15, and 60 min before pelleting cells by centrifugation at +4° C. for 5 min. Cell media was immediately harvested to a second plate and stored at −80° C. until further analysis. Pelleted cells were washed once with ice cold PBS before storage at −80° C. until further analysis.
Cells were lysed and protein in the media were precipitated using acetonitrile dimethylformamide, 9:1 containing internal standard. Samples were centrifuged and the supernatant was analyzed with LC-MS/MS (ACQUITY UPLC-Xevo TQ-S micro) to determine compound concentration.
Example compound 1, bendamustine and melphalan were used as test compounds.
Method: Method described in Biological example 3.
Example compounds 1, 2, 3, 4, 6, 7 and 10 were investigated. Intracellular metabolites are formed from all compounds tested. The compound used for cell treatment was metabolised to the ester-hydrolysed compound (here called Metabolite A) and to the amide-hydrolysed compound (called Metabolite B). The example compound structures and the structures of the two metabolites for the respective compounds were as shown in Table 4. The Metabolites B formed under the conditions tested were compounds with structure as Examples 17 and 18: […]

Data set [5] can be described thus: Stability of Example compound 1 in solution with various excipients (HPLC). Type of data set: physicochemical. As to conditions: 0.4 mg/mL. On the procedure:
Ethyl (2S)-2-[[(2S)-2-amino-4-[5-[bis(2-chloroethyl)amino]-1-methyl-benzimidazol-2-yl]butanoyl]amino]-4-methyl-pentanoate (Example compound 1; 19.2 mg, 16.7 mg free base) was dissolved in dimethylacetamide (419 μL) to give a 40 mg/mL stock solution.
Solutions of 0.4 mg/mL of Example compound 1 were prepared by diluting the stock solution in dimethylacetamide (40 mg/mL, 10 μL) with different solutions (990 μL) according to the Table 5 and the stability after 4 h at room temperature was analyzed by HPLC (Analytical HPLC was carried out on an Agilent Series 1100 system using a Kinetex XB C18 (2.6 μm, 3.0×50 mm) column with 0.1% TFA in H2O/CH3CN as mobile phase (acid conditions) (flow 1 mL/min). The excipients were reported in weight ratio excipient:Example compound 1 (free base).

Data set [6] has as its system MM.1S cells. In words: DNA fragmentation, APO-BrdU TUNEL assay by FACS. In kind it is cell-based, human. How it is done: Method: 1×10^6 MM.1S cells (CRL-2974, ATCC) were treated with Example compound 1 or Bendamustine at 0.006, 0.06, 0.6 or 6 μM for 24 h. After incubation, the cells were washed with PBS (10010-015, Gibco), fixed in Flow Cytometry Fixation Buffer (FC004, R&D Systems) for 10 min and stored in 70% ethanol at −20° C. overnight. The deoxythymidine analog (BrdUTP) was present in the experiment and served to label the DNA break sites. Next day, the cells were washed and stained using an APO-BrdU™ TUNEL Assay Kit, according to the manufacturer's protocol (A23210, Invitrogen), followed by the analysis using BD FACSCanto™ II. The percentage ofTUNEL positive cells indicates the percentage of cells with fragmented DNA.
For orientation: Flow cytometry measures light scatter and fluorescence of single cells or particles in a stream.

Regarding `CCOC(=O)[C@H](CC(C)C)NC(=O)[C@@H](N)CCc1nc2cc(N(CCCl)CCCl)ccc2n1C` [Example compound 1, Ethyl (2S)-2-[[(2S)-2-amino-4-[5-[bis(2-chloroethyl)amino]-1-methyl-benzimidazol-2-yl]butanoyl]amino]-4-methyl-pentanoate], the “DNA damage on mitochondrial DNA (8.9 kb PCR band)” value in data set [1] was “strong DNA damaging effect”. For the same molecule, the “DNA damage on nuclear DNA (HPRT 10.4 kb PCR band)” value in data set [2] was “strong DNA damaging effect”. This molecule also showed an IC50 in data set [3] of 5.4 nM. Moreover, the “intracellular hydrolysis / metabolite formation” value in the data set with MM.1S cells [4] was “hydrolysis of Example compound 1 took place inside the cells”. In addition, the “Ex 1 remaining after 4 h at room temp (%)” value (“Ex 1 remaining … (%)” below) is on record as 78% in data set [5] (2-Hydroxypropyl-β-cyclodextrin (Kleptose), Ultrapure water (MilliQ), weight ratio excipient:Ex 1 5); 84% in data set [5] (2-Hydroxypropyl-β-cyclodextrin (Kleptose), Ultrapure water (MilliQ), weight ratio excipient:Ex 1 10); 85% in data set [5] (2-Hydroxypropyl-β-cyclodextrin (Kleptose), Ultrapure water (MilliQ), weight ratio excipient:Ex 1 20); 82% in data set [5] (2-Hydroxypropyl-γ-cyclodextrin, Ultrapure water (MilliQ), weight ratio excipient:Ex 1 5); 86% in data set [5] (2-Hydroxypropyl-γ-cyclodextrin, Ultrapure water (MilliQ), weight ratio excipient:Ex 1 10); 79% in data set [5] (2-Hydroxypropyl-γ-cyclodextrin, Ultrapure water (MilliQ), weight ratio excipient:Ex 1 20). Besides, the “Ex 1 remaining … (%)” value in data set [5] (Betadex Sulfobutyl Ether Sodium (Dexolve), Ultrapure water (MilliQ), weight ratio excipient:Ex 1 5) is on record as 99%; in data set [5] (Betadex Sulfobutyl Ether Sodium (Dexolve), Ultrapure water (MilliQ), weight ratio excipient:Ex 1 10), 101%; in data set [5] (Betadex Sulfobutyl Ether Sodium (Dexolve), Ultrapure water (MilliQ), weight ratio excipient:Ex 1 20), 98%; in data set [5] (excipient None, solvent 0.9% Saline, ratio 0), 93%; in data set [5] (excipient None, solvent 5% Glucose, ratio 0), 80%; in data set [5] (excipient None, solvent DPBS, ratio 0), 10%. In addition, the “Ex 1 remaining … (%)” value was 103% in data set [5] (excipient None, solvent Dimethylacetamide, ratio 0); 85% in data set [5] (excipient None, solvent Ultrapure water (MilliQ), ratio 0); 78% in data set [5] (γ-Cyclodextrin, Ultrapure water (MilliQ), weight ratio excipient:Ex 1 5); 82% in data set [5] (γ-Cyclodextrin, Ultrapure water (MilliQ), weight ratio excipient:Ex 1 10); 86% in data set [5] (γ-Cyclodextrin, Ultrapure water (MilliQ), weight ratio excipient:Ex 1 20). The “cells with DNA breaks” value in the data set with MM.1S cells [6] (0.6 μM for 24 h) was over 90%. Also, the “dose response effect on DNA damage (TUNEL positive cells)” value in the data set on MM.1S cells [6] (0.006, 0.06, 0.6 or 6 μM for 24 h) is “induced DNA damage in a dose-dependent manner”.

Broadly, the IC50 is the concentration that inhibits the measured activity by half.

These data come from US20260199294A1, “PEPTIDE DRUG CONJUGATES” (Oncopeptides Innovation AB, priority 2022, published 2026).
